Measured values reported in US20230201235A1, “INHIBITION OF NIDOVIRUSES THAT ENCODE NSP15” (The University of Chicago, priority 2020, published 2023).

Key:
Nsp15 [1] = biological target: T1, Nsp15 (Severe acute respiratory syndrome coronavirus 2, UniProt P0DTD1); assay: Nsp15 differential scanning fluorimetry (DSF) assay; type: binding; conditions: 10 μM Nsp15, 1 mM ligand, 10 mM MnCl2; for melting temperature (Tm) of Nsp15 in presence of ligand: same Tm as control
Description: The Nsp15 differential scanning fluorimetry (DSF) assays were performed in a buffer 20 mM Tris pH 7.5, 100 mM NaCl, 1 mM TCEP that was supplemented with SYPRO™ Orange protein gel stain (Invitrogen, Carlsbad, Calif.) to 5× final concentration. 10 μM of the Nsp15 was used with the addition of each of 1 mM of tipiracil, 5′GpU, 5′UMP, 3′UMP, and TMP to get final molar ratio of protein to ligand 1:100. Additionally, the samples with ligands were supplemented with 10 mM MnCl2. After 30 min of incubation of samples at room-temperature, fluorescence measurements were done using CFX CONNECT™ Real-Time System (BioRad, Hercules, Calif.). Fluorescent signal was detected with temperature rate 1° C. per 60 sec. Samples were measured in triplicate, and the representative standard deviation of measurements are depicted for Nsp15 control sample and complex of the Nsp15 with addition of tipiracil.

SARS-CoV-2 Nsp15 [2] = biological target: T2, SARS-CoV-2 Nsp15 (Severe acute respiratory syndrome coronavirus 2, UniProt P0DTD1); type: binding; conditions: co-crystal structures, Table 1
Nsp15 [3] = biological target: T1, Nsp15; assay: Fluorescence-based endoribonuclease assay; type: biochemical, SARS-CoV-2
Description: The oligonucleotide dArUdAdA with 5′-6-FAM and 3′-6-TAMRA was synthetized by GenScript Biotech (Piscataway, N.J.). The concentration of 0.5 μM substrate was used with 2 μM Nsp15 in a buffer containing 20 mM HEPES at pH 7.8, 100 mM NaCl, and 5 mM MnCl2. Detection of the emission of FAM fluorescence signal was done on CFX CONNECT™ Real-Time System (Bio-Rad Laboratories, Hercules, Calif.).
Cleavage of oligonucleotide dArUdAdA with 5′-6-FAM and 3′-6-TAMRA substrate was tested using polyacrylamide gel electrophoresis. The concentration of labeled substrate was […], and the Nsp15 concentration varied to achieve different molar ratios of substrate to Nsp15. Samples were mixed in a buffer with 20 mM HEPES at pH 7.8, 100 mM NaCl, and 5 mM MnCl2. After 10 minutes of incubation, samples were loaded on NUPAGE Tris-Acetate 3-8% gel, and the electrophoresis was done on 80 V for 1 h. The detection of FAM emission on gel was performed using the Gel DOC™ EZ System (Bio-Rad Laboratories, Hercules, Calif.).

SARS-CoV-2 = assay: Whole cell assays: spike protein immunostaining and viral RNA qRT-PCR; type: cell-based
SARS-CoV-2 Nsp15 [4] = biological target: T2, SARS-CoV-2 Nsp15; assay: Radioactivity-based endoribonuclease assay; type: biochemical
A549-hACE2 cells = conditions: 1-50 μM

Compound | melting temperature (Tm) of Nsp15 in presence of ligand (Nsp15 [1]) | binding to the active site of Nsp15 in the crystal structure (SARS-CoV-2 Nsp15 [2]) | IC50 (Nsp15 [3]) | inhibition of virus (spike protein and RNA expression) (SARS-CoV-2) | IC50 (SARS-CoV-2 Nsp15 [4]) | inhibition of cleavage reaction at higher Mn2+ concentration (SARS-CoV-2 Nsp15 [4]; octamer RNA, higher Mn2+ ion concentration (15 mM MnCl2)) | shift of Nsp15 denaturation profile to higher temperatures (Nsp15 [1]; versus control) | effect on viability of cells (A549-hACE2 cells)
Cc1cn([C@H]2C[C@H](OP(=O)(O)O)[C@@H](CO)O2)c(=O)[nH]c1=O [3′TMP] | approximately 60.5 °C |  |  |  |  |  |  | 
O=c1ccn([C@@H]2O[C@H](CO)[C@@H](OP(=O)(O)O)[C@H]2O)c(=O)[nH]1 [3′UMP, 3′-uridylic acid] | approximately 60.5 °C | binds directly in the active site of Nsp15 |  |  |  |  |  | 
O=c1ccn([C@@H]2O[C@H](COP(=O)(O)O)[C@@H](O)[C@H]2O)c(=O)[nH]1 [5′UMP, 5′-uridylic acid] | approximately 60.5 °C | binds directly in the active site of Nsp15 |  |  |  |  |  | 
N=C1CCCN1Cc1[nH]c(=O)[nH]c(=O)c1Cl [tipiracil, 5-chloro-6-[(2-imino-1-pyrrolidinyl)methyl]-2,4(1H,3H)-pyrimidinedione] | approximately 60.5 °C | binds directly in the active site of Nsp15 | 72 µM | modest | 7.5 µM | no inhibition | 0.5 °C | did not affect the viability of cells
uridine 2′,3′-vanadate [UV] |  | binds directly in the active site of Nsp15 |  |  |  |  |  | 
